Assay results taken from US7582660B2, “2-thio-substituted imidazole derivatives and their use in pharmaceutics” (c-a-i-r biosciences GmbH, priority 2002, dated 2009).

Experiments:
p 38 = p 38 (Homo sapiens, UniProt Q16539); experiment: Kinase assay (activated p38a, ATF2 substrate, ELISA readout); format: biochemical; conditions: ATF2, 100 μM ATP
Experimental: The reaction is stopped by placing the samples on ice, adding DPBS buffer and then centrifuging at 15 880 g for 12 min. The amount of IL-1β and TNFα in the plasma supernatant is then determined by ELISA. 2) Kinase Assay • At 37° C., microtiter plates were coated for one hour with 50 μl of ATF2 solution (20 μg/ml). The plates were washed three times with water, and 50 μl of kinase mixture (50 mM tris-HCl, 10 mM MgCl2, 10 mM β-glycerol phosphate, 10 μg/ml of BSA, 1 mM DTT, 100 μM ATP, 100 μM Na3VO4, 10 ng of activated p38a) with or without inhibitor were added into the wells, and the plates were incubated at 37° C. for 1 hour. The plates were washed three times and then incubated with phosphorus-ATF-2 antibody for one hour. The plates were once more washed three times, and goat-antirabbit IgG labeled with alkaline phosphatase was added at 37° C. for one hour (to fix antibody-phosphorylated protein/substrate complex). The plates were washed three times, and the alkaline phosphatase/substrate solution (3 mM 4-NPP, 50 mM NaHCO3, 50 mM MgCl2, 100 μl/well) was added at 37° C. for 1.5 hours. […] The IC50 values were calculated.

TNF-α [1] = experiment: In vitro test with PBMCs, LPS-stimulated TNFα release (ELISA); format: cell-based; conditions: human PBMCs, LPS 4 hours, read-out: IC50 (μM) PBMCA TNF-α
IL-1β [2] = experiment: In vitro test with PBMCs, LPS-stimulated IL-1β release (ELISA); format: cell-based; conditions: human PBMCs, LPS 4 hours, read-out: IC50 (μM) PBMCA IL-1β
TNF-α [3] = experiment: In vitro test with human whole blood, LPS-stimulated TNFα release (ELISA); format: cell-based; conditions: 1 μg/ml LPS 4 hours, read-out: K50 (μM) Whole blood TNF-α
Experimental: (§1) They may be administered in one individual dose or in a plurality of doses. The activity spectrum of the compounds as inhibitors of cytokine release was examined using the test systems below, as described by C. Donat and S. Laufer in Arch. Pharm. Pharm. […] 1, 1-40. 2000.
(§2) In Vitro Test with Human Whole Blood
(§3) The reaction is stopped by placing the samples on ice, adding DPBS buffer and then centrifuging at 1000 g for 15 min. The amount of IL-1β and TNFα in the plasma supernatant is then determined by ELISA.

IL-1β [4] = experiment: In vitro test with human whole blood, LPS-stimulated IL-1β release (ELISA); format: cell-based; conditions: read-out: K50 (μM) Whole blood IL-1β
Experimental: as §1, §2, §3

[5] = human whole blood, 1 μg/ml LPS 4 hours

p 38, sequence (Q16539 whole entry): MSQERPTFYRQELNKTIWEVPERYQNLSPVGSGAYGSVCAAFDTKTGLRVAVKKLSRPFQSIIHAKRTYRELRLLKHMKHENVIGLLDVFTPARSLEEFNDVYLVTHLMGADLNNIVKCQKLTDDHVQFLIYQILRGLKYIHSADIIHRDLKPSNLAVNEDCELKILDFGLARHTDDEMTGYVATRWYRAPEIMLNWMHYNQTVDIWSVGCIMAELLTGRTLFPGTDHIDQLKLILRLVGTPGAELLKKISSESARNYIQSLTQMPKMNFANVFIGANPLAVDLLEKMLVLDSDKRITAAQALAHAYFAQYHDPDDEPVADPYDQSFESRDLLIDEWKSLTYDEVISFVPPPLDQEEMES

SMILES	IC50 (p 38)	IC50 (TNF-α [1]; PBMC)	IC50 (IL-1β [2]; PBMC)	IC50 (TNF-α [3])	IC50 (IL-1β [4]; [5])	IC50 (TNF-α [1])	IC50 (IL-1β [2])	IC50 (IL-1β [4]; Homo sapiens, 4 h)
C[S+]([O-])c1ccc(CSc2nc(-c3ccc(F)cc3)c(-c3ccnc(F)c3)[nH]2)cc1 (centres unmarked) [Compound 27b, 2-Fluoro-4-[5-(4-fluorophenyl)-2-(4-methanesulfinylbenzylsulfanyl)-3H-imidazol-4-yl]pyridine]	9.3 µM	6.9 µM	2.45 µM					
C[S+]([O-])c1ccc(CSc2nc(-c3ccc(F)cc3)c(-c3ccnc(NCc4ccccc4)c3)[nH]2)cc1 (centres unmarked) [Compound 27c, Benzyl-{4-[5-(4-fluorophenyl)-2-(4-methanesulfinylbenzylsulfanyl)-3H-imidazol-4-yl]pyridin-2-yl}amine]	1.45 µM	2 µM	0.47 µM					
CSc1nc(-c2ccc(F)cc2)c(-c2ccnc(NCc3ccc(C)cc3)c2)[nH]1 [Compound 25h, {4-[5-(4-Fluorophenyl)-2-methylsulfanyl-3H-imidazol-4-yl]pyridin-2-yl}-(4-methylbenzyl)amine]	0.83 µM	0.67 µM	0.085 µM	17.3 µM	22.3 µM			
CSc1nc(-c2ccc(F)cc2)c(-c2ccnc(F)c2)[nH]1 [Compound 25b, 2-Fluoro-4-[5-(4-fluorophenyl)-2-methylsulfanyl-3H-imidazol-4-yl]pyridine]	3.8 µM	2.8 µM	0.3 µM					
COc1ccc(CNc2cc(-c3[nH]c(SCc4ccccc4)nc3-c3ccc(F)cc3)ccn2)cc1 [Compound 26e, {4-[2-Benzylsulfanyl-5-(4-fluorophenyl)-3H-imidazol-4-yl]pyridin-2-yl}-(4-methoxybenzyl)amine]		21 µM	0.18 µM					
COc1cc(-c2[nH]c(SC)nc2-c2ccc(F)cc2)ccn1 [Compound 25d, 4-[5-(4-Fluorophenyl)-2-methylsulfanyl-3H-imidazol-4-yl]-2-methoxypyridine]		1.9 µM	0.15 µM					
CSc1nc(-c2ccc(F)cc2)c(-c2cc[nH]c(=O)c2)[nH]1 [Compound 25e, 4-[5-(4-Fluorophenyl)-2-methylsulfanyl-3H-imidazol-4-yl]-1H-pyridin-2-one]		3.1 µM	0.5 µM					
CSc1nc(-c2ccc(F)cc2)c(-c2ccnc(NCc3ccccc3)c2)[nH]1 [Compound 25f, Benzyl{4-[S-(4-fluorophenyl)-2-methylsulfanyl-3H-imidazol-4-yl]pyridin-2-yl}-amine]	0.65 µM					0.63 µM	0.108 µM	
CSc1nc(-c2ccc(F)cc2)c(-c2ccnc(Nc3ccccc3)c2)[nH]1 [Compound 25k, {4-[5-(4-Fluorophenyl)-2-methylsulfanyl-3H-imidazol-4-yl]pyridin-2-yl}-phenylamine]	0.13 µM	0.34 µM	0.03 µM					
CSc1nc(-c2ccc(F)cc2)c(-c2ccnc(NC(C)c3ccccc3)c2)[nH]1 (racemic) [Compound 25m, (RS)-{4-[5-(4-Fluorophenyl)-2-methylsulfanyl-3H-imidazol-4-yl]pyridin-2-yl}-(1-phenylethyl)amine]								0.99 µM

More lines, main results first:

IC50 (p 38)	IC50 (TNF-α [1]; PBMC)	IC50 (IL-1β [2]; PBMC)	IC50 (TNF-α [3])	IC50 (IL-1β [4]; [5])	IC50 (TNF-α [1])	IC50 (IL-1β [2])	SMILES	IC50 (IL-1β [4]; Homo sapiens, 4 h)
	60 µM	1.8 µM					Fc1ccc(-c2nc(SCc3ccccc3)[nH]c2-c2ccnc(Cl)c2)cc1 [Compound 26a, 4-[2-Benzylsulfanyl-5-(4-fluorophenyl)-3H-imidazol-4-yl]-2-chloropyridine]	
8.7 µM	4.6 µM	2.7 µM	7.2 µM	2.2 µM			CSc1nc(-c2ccc(F)cc2)c(-c2ccnc(OC(C)C)c2)[nH]1 [Compound 25c, 4-[5-(4-Fluorophenyl)-2-methylsulfanyl-3H-imidazol-4-yl]-2-isopropoxypyridin]	
0.95 µM	0.5 µM	0.15 µM	14.8 µM	13.3 µM			CSc1nc(-c2ccc(F)cc2)c(-c2ccnc(NCc3ccc(Cl)cc3)c2)[nH]1 [Compound 25i, (4-Chlorobenzyl)-{4-[5-(4-fluorophenyl)-2-methylsulfanyl-3H-imidazol-4-yl]-pyridin-2-yl}amine]	
0.24 µM	0.35 µM	0.031 µM	14.9 µM	17.1 µM			CSc1nc(-c2ccc(F)cc2)c(-c2ccnc(NCCc3ccccc3)c2)[nH]1 [Compound 25l, {4-[5-(4-Fluorophenyl)-2-methylsulfanyl-3H-imidazol4-yl]pyridin-2-yl}-phenethylamine]	
1.42 µM	3.2 µM	0.2 µM					Fc1ccc(-c2nc(SCc3ccccc3)[nH]c2-c2ccnc(NCc3ccccc3)c2)cc1 [Compound 26c, Benzyl-{4-[2-benzylsulfanyl-5-(4-fluorophenyl)-3H-imidazol-4-yl]pyridin-2-yl}-amine]	
0.38 µM	2.7 µM	0.045 µM					CC(Nc1cc(-c2[nH]c(SCc3ccccc3)nc2-c2ccc(F)cc2)ccn1)c1ccccc1 (racemic) [Compound 26d, (RS)-{4-[2-Benzylsulfanyl-S-(4-fluorophenyl)-3H-imidazol-4-yl]pyridin-2-yl}-(1-phenylethyl)amine]	
0.27 µM	0.91 µM	0.04 µM	10 µM	15.7 µM			CC(Nc1cc(-c2[nH]c(SCc3ccc([S+](C)[O-])cc3)nc2-c2ccc(F)cc2)ccn1)c1ccccc1 (racemic) [Compound 27d, (RS)-{4-[5-(4-Fluorophenyl)-2-(4-methanesulfinylbenzylsulfanyl)-3H-imidazol-4-yl]pyridin-2-yl}-(1-phenylethyl)amine]	
	2.2 µM	0.35 µM					CSc1nc(-c2ccc(F)cc2)c(-c2ccnc(Cl)c2)[nH]1 [Compound 25a, 2-Chloro-4-[5-(4-fluorophenyl)-2-methylsulfanyl-3H-imidazol-4-yl]pyridine]	
	12 µM	2.1 µM					C[S+]([O-])c1ccc(CSc2nc(-c3ccc(F)cc3)c(-c3ccnc(Cl)c3)[nH]2)cc1 (centres unmarked) [Compound 27a, 2-Chloro-4-[5-(4-fluorophenyl)-2-(4-methanesulfinylbenzylsulfanyl)-3H-imidazol-4-yl]pyridine]	
0.79 µM	0.64 µM	0.056 µM					COc1ccc(CNc2cc(-c3[nH]c(SC)nc3-c3ccc(F)cc3)ccn2)cc1 [Compound 25g, {4-[5-(4-Fluorophenyl)-2-methylsulfanyl-3H-imidazol-4-yl]pyridin-2-yl}-(4-methoxybenzyl)amine]	
0.7 µM	0.72 µM	0.23 µM					CSc1nc(-c2ccc(F)cc2)c(-c2ccnc(NCc3ccc(Cl)c(Cl)c3)c2)[nH]1 [Compound 25j, (3,4-Dichlorobenzyl)-{4-[5-(4-fluorophenyl)-2-methylsulfanyl-3H-imidazol4-yl]-pyridin-2-yl}amine]	
4.2 µM	40.5 µM	2.9 µM					Fc1ccc(-c2nc(SCc3ccccc3)[nH]c2-c2ccnc(F)c2)cc1 [Compound 26b, 4-[2-Benzylsulfanyl-5-(4-fluorophenyl)-3H-imidazol-4-yl]-2-fluoropyridine]	
